According to patent publication US6569881B1, “Substituted benzimidazole, the production thereof and the use thereof as means against parasitic protozoa” (Bayer Aktiengesellschaft, priority 1999, dated 2003):

Columns and labels:
Assay type in all cases: in vivo, chicken chicks
[1] = system: Eimeria acervulina, Eimeria maxima and Eimeria tenella; test: Cage experiments coccidiosis/chicks, mixed experimental infection
Method: (§1) The efficacy of the compounds according to the invention can be confirmed, for example, in cage experiments using the following experimental arrangement, in which the animals are treated with the respective individual components and with the mixtures of the individual components.
(§2) An active compound-containing feed is prepared in such a way that the required amount of active compound is thoroughly mixed with a nutritionally balanced animal feed, e.g. with the chick feed indicated below.
(§3) 8 to 12 day-old male chicken chicks raised under coccidea-free conditions (e.g. LSL Brinkschulte/Senden) receive the compounds according to the invention (test substances) from 3 days before (day -3) the infection (=a.i.) until 8 (9) days after the infection (=p.i.) with the feed in the concentration indicated in ppm. Three animals are kept in each cage. Per dose, one to a number of groups of this type are employed. Infection is carried out by means of a stomach tube directly into the crop using approximately 100,000 sporulated oocysts of Eimeria acervulina and with in each case approximately 30,000 oocysts of E. maxima and 40,000 sporulated oocysts of E. tenella. These are highly virulent strains. The exact infectious dose is adjusted such that if possible one of three experimentally infected untreated chicks dies due to infection. For the assessment of the efficacy, the following criteria are taken into consideration: weight increase from the start of the experiment to the end of the experiment, death rate due to infection, macroscopic assessment of the faeces with respect to diarrhoea and excretion of blood on days 5 and 7 p.i. (grade 0 to 6), macroscopic grade of the intestinal mucous membrane, in particular of the cecums (grade 0 to 6) and the oocyst excretion and also the proportion (in %) of the oocysts sporulating within 24 hours. The number of oocysts in the faeces was determined with the aid of the McMaster counting chamber (see Engelbrecht and coworkers “Parasitologische Arbeitsmethoden in Medizin und Veterinärmedizin, [Parasitological working methods in medicine and veterinary medicine] Akademie-Verlag, Berlin (1965)). The individual findings are related to the untreated noninfected control groups and an overall grade is calculated (cf. A. Haberkorn (1986), pp. 263 to 270 in Research in Avian Coccidiosis ed L. R. McDougald, L. P. Joyner, P. L. Long Proceedings of the Georgia Coccidiosis Conference Nov, 18-20, 1985 Athens/Ga. USA).
In the column “ppm”, the concentration of the active compound employed in the feed is indicated in ppm.
In the column “mortality”, the percentage of the animals which have died is indicated under % and the number of the animals which have died/animals employed in the experiment is indicated under n.
In the column “weight % of not inf. control”, the ratio of the weight of the treated animals to the weight of the noninfected control group is indicated.
(§4) In the columns “dropping scores”, “lesion score” and “oocyst control”, individual details of the action are given.
In the column “% efficacy”, the overall rating is assessed; 0% means no action, 100% means complete action.

Eimeria maxima = test: Cage experiments coccidiosis/chicks, Eimeria maxima part of the mixed infection; settings: for Efficacy against Eimeria maxima (grade): second symbol of cell; for Efficacy against Eimeria maxima (grade): key: 2 = complete action; 1 = weak action; 0 = inactive; D = death
Method: as §1, §2, §3, §4

Eimeria acervulina = test: Cage experiments coccidiosis/chicks, Eimeria acervulina part of the mixed infection; settings: for Efficacy against Eimeria acervulina (grade): first symbol of cell; for Efficacy against Eimeria acervulina (grade): key: 2 = complete action; 1 = weak action; 0 = inactive; D = death
Method: as §1, §2, §3, §4

Eimeria tenella = test: Cage experiments coccidiosis/chicks, Eimeria tenella part of the mixed infection; settings: for Efficacy against Eimeria tenella (grade): third symbol of cell; for Efficacy against Eimeria tenella (grade): key: 2 = complete action; 1 = weak action; 0 = inactive; D = death
Method: as §1, §2, §3, §4

Cc1oc(=O)oc1Cn1c(C(F)(F)F)nc2c(Br)cc3c(c21)OC(F)(F)C(F)(F)O3 [Example 14]
% efficacy tot. ([1]; 2.5 ppm in feed): 30%
mortality % ([1]; 2.5 ppm in feed): 0%
mortality n (died/employed) ([1]; 2.5 ppm in feed): 0/3
oocyst in % of inf. control tot. ([1]; 2.5 ppm in feed): 35%
weight % of not inf. control ([1]; 2.5 ppm in feed): 44%
dropping scores ([1]; 2.5 ppm in feed, grade 0 to 6): 6
lesion score ([1]; 2.5 ppm in feed, grade 0 to 6): 6
% efficay tot. ([1]; 5 ppm): 0%
dropping scores ([1]; 5 ppm): 6
lesion score ([1]; 5 ppm): 6
mortality % ([1]; 5 ppm): 33%
mortality n ([1]; 5 ppm): 1/3
oocyst in % of inf. control tot. ([1]; 5 ppm): 67 % of inf. control
weight % of not inf. control ([1]; 5 ppm): 29 % of not inf. control
% efficacy tot. ([1]; 5 ppm in feed): 66%
mortality % ([1]; 5 ppm in feed): 33%
mortality n (died/employed) ([1]; 5 ppm in feed): 1/3
oocyst in % of inf. control tot. ([1]; 5 ppm in feed): 2%
weight % of not inf. control ([1]; 5 ppm in feed): 90.6%
dropping scores ([1]; 5 ppm in feed, grade 0 to 6): 6
lesion score ([1]; 5 ppm in feed, grade 0 to 6): 5.5
% efficay tot. ([1]; 7.5 ppm): 45%
dropping scores ([1]; 7.5 ppm): 6
lesion score ([1]; 7.5 ppm): 6
mortality % ([1]; 7.5 ppm): 0%
mortality n ([1]; 7.5 ppm): 0/3
oocyst in % of inf. control tot. ([1]; 7.5 ppm): 15 % of inf. control
weight % of not inf. control ([1]; 7.5 ppm): 61 % of not inf. control
% efficay tot. ([1]; 10 ppm): 45%
dropping scores ([1]; 10 ppm): 3
lesion score ([1]; 10 ppm): 6
mortality % ([1]; 10 ppm): 0%
mortality n ([1]; 10 ppm): 0/3
oocyst in % of inf. control tot. ([1]; 10 ppm): 16 % of inf. control
weight % of not inf. control ([1]; 10 ppm): 79 % of not inf. control
% efficacy tot. ([1]; 10 ppm in feed): 69%
mortality % ([1]; 10 ppm in feed): 0%
mortality n (died/employed) ([1]; 10 ppm in feed): 0/3
oocyst in % of inf. control tot. ([1]; 10 ppm in feed): 4%
weight % of not inf. control ([1]; 10 ppm in feed): 81%
dropping scores ([1]; 10 ppm in feed, grade 0 to 6): 4
lesion score ([1]; 10 ppm in feed, grade 0 to 6): 6
oocyst in % of inf. control max. (Eimeria maxima; 2.5 ppm in feed): 0%
oocyst in % of inf. control max. (Eimeria maxima; 5 ppm): 57 % of inf. control
oocyst in % of inf. control max. (Eimeria maxima; 5 ppm in feed): 6%
oocyst in % of inf. control max. (Eimeria maxima; 7.5 ppm): 1 % of inf. control
oocyst in % of inf. control max. (Eimeria maxima; 10 ppm): >100 % of inf. control
oocyst in % of inf. control max. (Eimeria maxima; 10 ppm in feed): 0%
Efficacy against Eimeria maxima (grade) (Eimeria maxima; Dose 5 ppm): 2
Efficacy against Eimeria maxima (grade) (Eimeria maxima; Dose 10 ppm): 2
oocyst in % of inf. control ac. (Eimeria acervulina; 2.5 ppm in feed): 92%
oocyst in % of inf. control ac. (Eimeria acervulina; 5 ppm): 80 % of inf. control
oocyst in % of inf. control ac. (Eimeria acervulina; 5 ppm in feed): 3%
oocyst in % of inf. control ac. (Eimeria acervulina; 7.5 ppm): 16 % of inf. control
oocyst in % of inf. control ac. (Eimeria acervulina; 10 ppm): 2 % of inf. control
oocyst in % of inf. control ac. (Eimeria acervulina; 10 ppm in feed): 1%
Efficacy against Eimeria acervulina (grade) (Eimeria acervulina; Dose 5 ppm): 2
Efficacy against Eimeria acervulina (grade) (Eimeria acervulina; Dose 10 ppm): 2
oocyst in % of inf. control ten. (Eimeria tenella; 2.5 ppm in feed): 12%
oocyst in % of inf. control ten. (Eimeria tenella; 5 ppm): 44 % of inf. control
oocyst in % of inf. control ten. (Eimeria tenella; 5 ppm in feed): 1%
oocyst in % of inf. control ten. (Eimeria tenella; 7.5 ppm): 15 % of inf. control
oocyst in % of inf. control ten. (Eimeria tenella; 10 ppm): 26 % of inf. control
oocyst in % of inf. control ten. (Eimeria tenella; 10 ppm in feed): 7%
Efficacy against Eimeria tenella (grade) (Eimeria tenella; Dose 5 ppm): 1
Efficacy against Eimeria tenella (grade) (Eimeria tenella; Dose 10 ppm): 1
